These results are taken from patent US20260295137A1, “METHOD FOR REMOVING UREMIC TOXINS FROM BLOOD” (INSTITUT NATIONAL DE LA SANTÉ ET DE LA RECHERCHE MÉDICALE, priority 2023, published 2026).

Series [1] can be described thus: In vivo hemodialysis in anesthetized pigs: removal of p-CS. The following applies: octanoate vs saline, 2 h HD; P<0.05.
Series [2] is described as follows: In vivo hemodialysis in anesthetized pigs: removal of IS. The following applies: octanoate vs saline, 2 h HD; P<0.05.
Another series deals with fresh bovine blood. Briefly: In vitro hemolysis assay. The following applies: 4 h, 37° C.; for hemolysis compared to control: 1-3 mmol/L. It is filed as cell-based. The method, then:
(§1) One milliliter of fresh bovine blood was incubated for 4 h at 37° C. with 50 μL of a solution of medium chain fatty acids (final concentration: 0.25, 0.5, 1, 2 or 3 mmol/L) or PBS as control. A positive control of hemolysis (taken as 100% hemolysis) was produced by incubating 1 mL of bovine blood with 0.1% (v/v) of TRITON X100 followed by 2 freeze-thaw cycles. Samples were centrifuged 2 min at 9000×g and plasma was stored at −20° C. until free hemoglobin assay. Hemolysis was estimated by the free hemoglobin concentration. Hemoglobin concentration was determined spectrophotometrically as described by Fairbanks et al (Clin Chem. 1992 January; 38 (1): 132-40). Briefly, plasma samples were diluted to 1:10 in Na2CO3 9.4 mmol/L and absorbance was read at 415 nm, 450 nm and 700 nm on a microplate reader (Tecan, Lyon, France).
(§2) Free hemoglobin concentration was calculated using the following equation: […]
(§3) Wherein: • fHb is the concentration of free hemoglobin in g/L, • A is the absorbance at the specified wavelength, • d is the dilution factor.
(§4) Results were expressed as percent of total hemolysis.
(§5) Fresh bovine blood was incubated for 4 h (the full duration of a typical hemodialysis session) at 37° C. in presence of MCFAs (1-3 mmol/L) and dosage of free hemoglobin in plasma was taken as an index of hemolysis (FIG. 6A-D).

Another series is described as follows: In vitro hemolysis assay. It is filed as cell-based, bovine. The following applies: bovine, blood, 37° C., control 1.5%; for hemolysis at 4 h: MCFA 1-3 mmol/L (exact concentration not stated), median (IQR); for hemolysis at 4 h, 3000 µM: 3 mmol/L. The method, then:
as §1, §2, §3, §4, §5

A further series deals with bovine red blood cells. Nature of the series: Hemodialysis of fresh bovine blood: hematocrit, hemolysis, plasma protein. The following applies: continuous infusion of octanoate for 2 h.
A further series relates to pigs. Nature of the series: In vivo hemodialysis in anesthetized pigs: tolerance.
Series [3] can be described thus: Hemodialysis of fresh bovine blood (closed loop): removal of p-CS. From the text: (§6) To assess the reality of the displacement and the increase of the removal of PBUT during a hemodialysis session, batches of 20 liters of fresh bovine blood were collected from the slaughterhouse under the authorization VC18731 (Oct. 4, 2018) issued from the Direction Départmentale de la Protection des Populations—Direction des Services Vétérinaires (DDPP-DSV, Lyon, France). Blood was heparinized at 3,750 UI/L with Sodium Heparin (Choay, Cheplapharm, France) and filtered on a nylon mesh. Two liters of blood (2 L) were spiked with 200 μmol/L of IS and gently stirred for 2 hours at 37° C. A 2-hour hemodialysis session was performed with Fresenius 5008 CorDiax hemodialysis generator (Fresenius, Sevres, France) and with a polysulfone-based hemodialysis membrane (FXHDF1000, 2.2 m^2, Fresenius Medical Care, Bad Homburg, Germany). Arterial and venous port were disposed in the blood batch to perform a closed loop circuit (see representation of the experimental device on FIG. 1). Blood and dialysate flow rates were set at 200 and 300 mL/min, respectively and dialysate temperature was set at 38° C. […] Blood samples were collected from the arterial lines at 0, 15, 30, 45, 60, 75, 90 and 120 minutes. Blood was centrifuged at 9,000 g for 2 minutes and plasma was stored at −20° C. […] At the beginning and the end of the experiment, hemolysis was estimated through the measurement of free hemoglobin in plasma as described above. Total protein concentration was measured according to the method of Lowry using bovine serum albumin as standard. Hematocrit was measured using a micromethod (Mondal H, Lotfollahzadeh S. Hematocrit. 2023 Jan. 2. In: StatPearls [Internet]. Treasure Island (FL): StatPearls Publishing; 2023). Briefly, 70 μL of blood was collected in a heparinized capillary tube. The end of the capillary tube was sealed with clay sealant and centrifuged at a rate of 9000 rpm for 5 min. The hematocrit level was read using a microhematocrit card reader.
(§7) 5-Hydroxyindole-2-carboxylic acid (5-HICA) was used as an internal standard in all experiments. Plasma samples were centrifugated at 17 000 rpm for 5 minutes. 125 μL of the supernatant was then pretreated using the Ostro Pass-through Sample Preparation Device (Waters, Saint-Quentin-en-Yvelines, France), including an in-well protein precipitation with acetonitrile (375 μL) in combination with a pass-through method that allows a good extraction. Eluants were evaporated to dryness in a gentle stream of nitrogen gas. […] Total PBUT concentrations were determined by a reverse phase HPLC with an isocratic flow at 0.2 ml/min. p-CS and IS were determined by fluorescence analysis (excitation λex: 270 nm; emission λem: 320 nm).

Series [4] in a line: Hemodialysis of fresh bovine blood (closed loop): removal of IS.
Description: as §6, §7

Series [5] concerns the target T1, human serum albumin (Homo sapiens, UniProt P02768).
T1 construct: purchased Sigma-Aldrich (Saint Quentin Fallavier, France) A9511
Briefly: Ultrafiltration competition assay: displacement of IS from HSA. The following applies: IS 250 μmol/L, HSA 500 μM; for free fraction of IS: displacer 3 mM, pH 7.40, median (IQR), baseline 10.0%; for concentration dependence of increase in free fraction of IS: displacer 1-3 mM. It is filed as binding. The method, then: (§8) Control experiments were performed by adding the same volume of PBS instead of displacer. Then, 600 μL of samples were transferred in filtration devices (Corning®, Spin-X® UF Concentrator, Wiesbaden, Germany, MWCO: 5 kDa) and were centrifuged at 10,000 g for 5 min and 13,000 g for 15 min at room temperature. Ultrafiltrate was collected and free fraction of IS concentration were assayed fluorometrically as described thereafter.
(§9) Samples were diluted in PBS and fluorescence was measured with a Jasco FP-8300iRM Spectro-fluorometer (Jasco, Tokyo, Japan).
The free fraction of IS was measured using ultrafiltration experiments as described as described above.

Series [6] addresses T1, human serum albumin. Nature of the series: Ultrafiltration competition assay: displacement of p-CS from HSA. The following applies: for free fraction of p-CS: displacer 3 mM, median (IQR), baseline 14%. It is filed as binding. The method, then:
as §8, §9
The free fraction of p-CS was measured using ultrafiltration experiments as described as described above.

For series [7] the following is noted: background art; cited from earlier work.

T1 sequence (P02768 25-609): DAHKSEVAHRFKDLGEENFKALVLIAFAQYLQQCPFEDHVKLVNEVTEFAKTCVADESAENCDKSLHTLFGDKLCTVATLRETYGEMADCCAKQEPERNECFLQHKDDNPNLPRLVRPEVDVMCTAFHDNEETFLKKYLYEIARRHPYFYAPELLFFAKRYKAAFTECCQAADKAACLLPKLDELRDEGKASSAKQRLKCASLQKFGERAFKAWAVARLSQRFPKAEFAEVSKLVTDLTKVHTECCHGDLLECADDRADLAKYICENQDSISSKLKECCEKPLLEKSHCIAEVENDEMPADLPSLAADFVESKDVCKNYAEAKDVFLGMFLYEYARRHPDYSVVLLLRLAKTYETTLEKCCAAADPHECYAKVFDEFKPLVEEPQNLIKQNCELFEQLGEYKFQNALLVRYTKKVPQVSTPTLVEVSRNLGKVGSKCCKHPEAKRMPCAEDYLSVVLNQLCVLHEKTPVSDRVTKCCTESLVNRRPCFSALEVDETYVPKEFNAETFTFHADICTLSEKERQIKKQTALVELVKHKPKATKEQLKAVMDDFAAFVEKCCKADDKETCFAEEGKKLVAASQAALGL

Take `CCCCCCCC(=O)O` [Octanoate, octanoic acid]: in series [1], the “increase of dialytic clearance of p-CS” value was “+101%”. The “increase of dialytic clearance of IS” value in series [2] is “+113%”. Also, in the series with fresh bovine blood, the “hemolysis compared to control” value was “did not trigger any significant hemolysis”. Further, in the series “In vitro hemolysis assay”, the hemolysis at 4 h stood at 2.3%. Besides, in the series with bovine red blood cells, the change in hematocrit result was “did not elicit any significant change in hematocrit” and the “change in hemolysis levels” value is reported as “did not elicit any significant change in hematocrit or hemolysis levels”. Further, in the series on pigs (hematocrit and free hemoglobin, sodium octanoate i.v. during HD), the hemolysis entry is “no hemolysis”. Moreover, the tolerance entry in the series on pigs (sodium octanoate 333 mmol/L i.v. at 18 mL/h, 2 h HD) was “Tolerance of all animals was good and no side effect was noticed”. For the same compound, the “fractional removal of p-CS” value in series [3] (2 h HD, octanoate infusion, control 38%, p<0.001) was 88%. Moreover, the “half-life of p-CS in plasma” value in series [3] (octanoate infusion, control 20.6 min) came to 12.8 min. The “increase of fractional removal of p-CS” value in [3] (octanoate vs control, p<0.001) turned out to be 2.3 folds. For the same compound, in [3] (per-dialytic infusion of octanoate, control 0.3 μmol/min), the “toxin removal, pCS” value was 1 μmol/min. In addition, the “fractional removal of IS” value in [4] (2 h HD, octanoate infusion, control 36%, p<0.001) worked out at 91%. Besides, in series [4] (octanoate infusion, control 36.4 min), the “half-life of IS in plasma” value was found to be 15.2 min. Also, in [4] (octanoate vs control, p<0.001), the “increase of fractional removal of IS” value was found to be 2.5 folds. Further, the “toxin removal, IS” value in series [4] (per-dialytic infusion of octanoate, control 1.5 μmol/min) is 3.5 µmol/min.

For `CCCCCCCCCCCC(=O)O` [Dodecanoate, dodecanoic acid], the concentration triggering hemolysis result in the series with fresh bovine blood (bovine blood) was “higher than 0.25 mmol/L”. Moreover, in the series “In vitro hemolysis assay” (0.5 mmol/L), the hemolysis at 4 h, 500 µM worked out at 15.3%. In “In vitro hemolysis assay”, this compound had a hemolysis at 4 h, 3000 µM of 24.9%. On human serum albumin [5], the “free fraction of IS” value was 42% (41%-44%) and the “concentration dependence of increase in free fraction of IS” value is recorded as “dose dependently increased the free fraction of IS”.

`CCCCCC(=O)O` [Hexanoate, hexanoic acid]: the “free fraction of p-CS” value at human serum albumin [6] is on record as 36% (34%-41%). Besides, at human serum albumin [6] (highest concentration 3 mM), the “concentration dependence of increase in free fraction of p-CS” value is “only increased the free fraction of p-CS at the highest concentration tested”. For the same compound, the “hemolysis compared to control” value with fresh bovine blood is “did not trigger any significant hemolysis”. In the series “In vitro hemolysis assay”, this compound displayed a hemolysis at 4 h of 3.6%. Moreover, on human serum albumin [5], the “free fraction of IS” value was 36% (34%-39%) and the “concentration dependence of increase in free fraction of IS” value is “only increased the free fraction of IS at the highest concentration tested”.

`CCCCC/C=C\C/C=C\CCCCCCCC(=O)O` [linoleic acid]: the effect on dyslipidemia result in series [7] is recorded as “exacerbate dyslipidemia”.

With `CCCCCCCC/C=C\CCCCCCCC(=O)O` [oleic acid], the effect on dyslipidemia result in series [7] is listed as “exacerbate dyslipidemia”.

For `CCCCCCCCCC(=O)O` [Decanoate, decanoic acid], on human serum albumin [6], the “free fraction of p-CS” value is 59% (57%-63%). In the series “In vitro hemolysis assay”, this compound gave a hemolysis at 4 h, 3000 µM of 21.9%. The “free fraction of IS” value at human serum albumin [5] is listed as 54% (52%-58%).
